Values after ≈ are worked out from the molar mass of the structure shown.
How the values were obtained:
[1] = DOSY NMR of saturated phenytoin with increasing polymer concentration; type: physicochemical; conditions: deuterated PBS, poly(NIPAm70-co-DMA30) concentration increased (up to 1000 μg/mL)
[2] = aqueous settings; cited from earlier work
[3] = rat models; cited from earlier work

translational diffusion coefficient (D0) of phenytoin [1] | SMILES | solubility [2] [µg/mL] | AUC over 24 h [3] [μg/mL-min]
3.72 ± 0.19 × 10^–10 m^2/s | O=C1NC(=O)C(c2ccccc2)(c2ccccc2)N1 [phenytoin] | ~30 (≈ 119 µM) | 
 | O=C1NC(c2ccccc2)(c2ccccc2)C(=O)N1COP(=O)(O)O [fosphenytoin] |  | 1860 ± 310

Reference: article PMC5084074 (ACS Central Science, 2016)
